# Laboratory results reported in patent US3970703A, “Phenylacetic acid derivatives” (Sumitomo Chemical Company, Limited, priority 1970, dated 1976).
# Several values for one entry are separate records, joined by “and”; a condition that tells them apart may be missing. Identical values can stand only once. Like-named read-outs stand apart in the source and are kept apart here.
# What was measured:
# housefly adults = type: in vivo
# [1] = in words, background; cited from earlier work
# house fly adults = assay: Oil spray test, Campbell's turn table method (Test Examples 1 and 2); details: Musca domestica, topical, 24 h, read-out: killing ratio
# [2] = insecticide alone, no synergist
# [3] = insecticide alone, no synergist (reference 1.0)
# [4] = 3,4-dimethylphenyl-N-methylcarbamate + synergist, relative to insecticide alone
# [5] = 3,4-dimethylphenyl-N-methylcarbamate + synergist, three batches
# [6] = allethrin + 5 times weight of synergist, relative to allethrin alone
# [7] = allethrin + 5 times weight of synergist, three batches
# [8] = natural pyrethrin + 5 times weight of synergist, relative to natural pyrethrin alone
# [9] = natural pyrethrin + 5 times weight of synergist, three batches
# [10] = present compound alone, no insecticide
# [11] = tetramethrin + 5 times weight of synergist, relative to tetramethrin alone of same batch
# [12] = tetramethrin + 5 times weight of synergist, three batches (tetramethrin alone 0.530, 0.520, 0.570)
structure (smiles),measurement,setting,value
"CNC(=O)Oc1ccc(C)c(C)c1 [3,4-Dimethylphenyl-N-methylcarbamate, 3,4-dimethylphenyl-N-methylcarbamate, reference compound]",LD50,housefly adults; [2],≥ 5 γ/Fly
same,Ratio of enhancing the killing effect,housefly adults; [3],1.0
"C=CCC1=C(C)C(OC(=O)C2C(C=C(C)C)C2(C)C)CC1=O (stereo not shown) [Allethrin, reference compound]",LD50,housefly adults; [2],0.560 γ/Fly and 0.60 γ/Fly and 0.610 γ/Fly
same,Ratio of enhancing the killing effect,housefly adults; [3],1.0
"CNC(=O)Oc1cccc2ccccc12 [Carbaryl, reference compound]",Ratio of enhancing the killing effect,housefly adults; [3],1.0
"CC(C)=CC1C(C(=O)OCc2coc(Cc3ccccc3)c2)C1(C)C (stereo not shown) [Chrysron, 5-benzyl-3-furylmethyl chrysanthemate, reference compound]",LD50,housefly adults; in vivo,0.026 γ/Fly and 0.024 γ/Fly and 0.027 γ/Fly
same,Ratio of enhancing the killing effect,housefly adults; [3],1.0
"CCCCC(CC)CN1C(=O)C2C3C=CC(C3)C2C1=O (stereo not shown) [MGK-264, N-(2-ethylhexyl)bicyclo[2,2,1]-hept-5-ene-anhydro-phthalic acid-2,3-dicarboxyimide]",synergistic effect on allethrin compared with natural pyrethrin,[1],more excellent synergistic effect on allethrin than that on natural pyrethrin
"CCCCOCCOCCOCc1cc2c(cc1CCC)OCO2 [Piperonyl butoxide, α-[2-(butoxyethoxy)-ethoxy]-4,5-methylene-dioxy-2-propyltoluene]",synergistic effect on allethrin and other synthetic pyrethroids,[1],somewhat inferior
same,synergistic effect on natural pyrethrin,[1],prominent synergistic effect
"C#CCOC(=O)C(CCC)(OC)c1ccccc1 (stereo not drawn) [Present compound (1), Propargyl α-(n-propyl)-α-methoxyphenylacetate]",Ratio of enhancing the killing effect,housefly adults; [4],≥ 18
same,LD50,housefly adults; [5],0.278 γ/Fly
same,Ratio of enhancing the killing effect,housefly adults; [6],6.6
same,LD50,housefly adults; [7],0.085 γ/Fly
same,Ratio of enhancing the killing effect,housefly adults; [8],4.9
same,LD50,housefly adults; [9],0.082 γ/Fly
same,LD50,housefly adults; [10],≥ 2 γ/Fly
same,Ratio of enhancing the killing effect,housefly adults; [11],7.8
same,LD50,housefly adults; [12],0.068 γ/Fly
"C#CCOC(=O)C(OC)(c1ccccc1)C(C)C (stereo not drawn) [Present compound (2), Propargyl α-(iso-propyl)-α-methoxyphenylacetate]",LD50,housefly adults; [10],≥ 2 γ/Fly
same,Ratio of enhancing the killing effect,housefly adults; [11],8.7
same,LD50,housefly adults; [12],0.061 γ/Fly
"C#CCOC(=O)C(CC=C)(OC)c1ccccc1 (stereo not drawn) [Present compound (3), Propargyl α-allyl-α-methoxyphenylacetate]",Ratio of enhancing the killing effect,housefly adults; [4],≥ 18
same,LD50,housefly adults; [5],0.273 γ/Fly
same,Ratio of enhancing the killing effect,housefly adults; [6],7.4
same,LD50,housefly adults; [7],0.076 γ/Fly
same,Ratio of enhancing the killing effect,housefly adults; [8],5.1
same,LD50,housefly adults; [9],0.079 γ/Fly
same,Ratio of enhancing the killing effect,housefly adults; [11],8.3
same,LD50,housefly adults; [12],0.064 γ/Fly
"C#CCOC(=O)C(CCC=C)(OC)c1ccccc1 (stereo not drawn) [Present compound (4), Propargyl α-butenyl-α-methoxyphenylacetate]",Ratio of enhancing the killing effect,housefly adults; [11],7.5
same,LD50,housefly adults; [12],0.071 γ/Fly
"C#CCOC(=O)C(CC=C)(OCC)c1ccccc1 (stereo not drawn) [Present compound (5), Propargyl α-allyl-α-ethoxyphenylacetate]",Ratio of enhancing the killing effect,housefly adults; [4],≥ 21
same,LD50,housefly adults; [5],0.238 γ/Fly
same,Ratio of enhancing the killing effect,housefly adults; [6],9.8
same,LD50,housefly adults; [7],0.057 γ/Fly
same,Ratio of enhancing the killing effect,housefly adults; [8],5.6
same,LD50,housefly adults; [9],0.071 γ/Fly
same,Ratio of enhancing the killing effect,housefly adults; [11],12.5
same,LD50,housefly adults; [12],0.042 γ/Fly
"C#CCOC(=O)C(CC(C)C)(OC)c1ccccc1 (stereo not drawn) [Present compound (6), Propargyl α-(iso-butyl)-α-methoxyphenylacetate]",Ratio of enhancing the killing effect,housefly adults; [11],8.0
same,LD50,housefly adults; [12],0.066 γ/Fly
"C#CCOC(=O)C(CC=C)(OCCC)c1ccccc1 (stereo not drawn) [Present compound (7), Propargyl α-allyl-α-(n-propyloxy)-phenylacetate]",Ratio of enhancing the killing effect,housefly adults; [11],7.9
same,LD50,housefly adults; [12],0.067 γ/Fly
"C#CCOC(=O)C(CCCCCC)(OC)c1ccccc1 (stereo not drawn) [Present compound (8), Propargyl α-(n-hexyl)-α-methoxyphenylacetate]",Ratio of enhancing the killing effect,housefly adults; [11],4.5
same,LD50,housefly adults; [12],0.128 γ/Fly
"C#CCOC(=O)C(OC)(c1ccccc1)C1CCCCC1 (stereo not drawn) [Present compound (9), Propargyl α-cyclohexyl-α-methoxyphenylacetate]",Ratio of enhancing the killing effect,housefly adults; [11],4.8
same,LD50,housefly adults; [12],0.111 γ/Fly
C#CCCOC(=O)C(CC=C)(OC)c1ccccc1 (stereo not shown) [Present compound (10)],LD50,housefly adults; [10],≥ 2 γ/Fly
same,Ratio of enhancing the killing effect,housefly adults; [11],6.9
same,LD50,housefly adults; [12],0.077 γ/Fly
"C#CCOC(=O)C(Cc1ccccc1)(OC)c1ccccc1 (stereo not drawn) [Present compound (11), Propargyl α-benzyl-α-methoxyphenylacetate]",Ratio of enhancing the killing effect,housefly adults; [4],≥ 24
same,LD50,housefly adults; [5],0.21 γ/Fly
same,Ratio of enhancing the killing effect,housefly adults; [6],10.0
same,LD50,housefly adults; [7],0.060 γ/Fly
same,Ratio of enhancing the killing effect,housefly adults; [8],6.5
same,LD50,housefly adults; [9],0.054 γ/Fly
same,Ratio of enhancing the killing effect,housefly adults; [11],11.3
same,LD50,housefly adults; [12],0.046 γ/Fly
"C#CCOC(=O)C(Cc1ccccc1)(OCC)c1ccccc1 (stereo not drawn) [Present compound (12), Propargyl α-benzyl-α-ethoxyphenylacetate]",Ratio of enhancing the killing effect,housefly adults; [11],10.0
same,LD50,housefly adults; [12],0.052 γ/Fly
"C=CCOC(=O)C(Cc1ccccc1)(OC)c1ccccc1 (stereo not drawn) [Present compound (13), Allyl α-benzyl-α-methoxyphenylacetate]",Ratio of enhancing the killing effect,housefly adults; [11],10.4
same,LD50,housefly adults; [12],0.050 γ/Fly
"C#CCOC(=O)C(OC)(c1ccccc1)c1cccs1 (stereo not drawn) [Present compound (14), Propargyl α-(2-thienyl)-α-methoxyphenylacetate]",Ratio of enhancing the killing effect,housefly adults; [11],8.1
same,LD50,housefly adults; [12],0.064 γ/Fly
"C#CCC(OC)(C(=O)OCC=C)c1ccccc1 (stereo not drawn) [Present compound (15), Allyl α-propargyl-α-methoxyphenylacetate]",Ratio of enhancing the killing effect,housefly adults; [11],8.7
same,LD50,housefly adults; [12],0.060 γ/Fly
C#CCCOC(=O)C(OC)(c1ccccc1)c1ccccc1 [Present compound (16)],Ratio of enhancing the killing effect,housefly adults; [4],≥ 20
same,LD50,housefly adults; [5],0.25 γ/Fly
same,Ratio of enhancing the killing effect,housefly adults; [6],7.2
same,LD50,housefly adults; [7],0.083 γ/Fly
same,Ratio of enhancing the killing effect,housefly adults; [8],5.5
same,LD50,housefly adults; [9],0.064 γ/Fly
same,Ratio of enhancing the killing effect,housefly adults; [11],9.5
same,LD50,housefly adults; [12],0.055 γ/Fly
C#CCCCCOC(=O)C(CCC)(OCC)c1ccccc1 (stereo not shown) [Present compound (17)],Ratio of enhancing the killing effect,housefly adults; [11],8.3
same,LD50,housefly adults; [12],0.063 γ/Fly
C#CCCOC(=O)C(OCCC#C)(c1ccccc1)c1ccccc1 [Present compound (18)],Ratio of enhancing the killing effect,housefly adults; [11],11.1
same,LD50,housefly adults; [12],0.047 γ/Fly
"C#CCOCC(CCC)(OC)c1ccccc1 (stereo not drawn) [Present compound (19), Propargyl α-(n-propyl)-α-methoxyphenethyl ether]",Ratio of enhancing the killing effect,housefly adults; [11],8.5
same,LD50,housefly adults; [12],0.067 γ/Fly
C#CCOCC(CC=C)(OC)c1ccccc1 (stereo not shown) [Present compound (20)],Ratio of enhancing the killing effect,housefly adults; [4],≥ 19
same,LD50,housefly adults; [5],0.252 γ/Fly
same,Ratio of enhancing the killing effect,housefly adults; [6],9.8
same,LD50,housefly adults; [7],0.062 γ/Fly
same,Ratio of enhancing the killing effect,housefly adults; [8],7.0
same,LD50,housefly adults; [9],0.056 γ/Fly
same,Ratio of enhancing the killing effect,housefly adults; [11],10.8
same,LD50,housefly adults; [12],0.053 γ/Fly
"C#CCOCC(CC=C)(OCC)c1ccccc1 (stereo not drawn) [Present compound (21), Propargyl α-allyl-α-ethoxyphenethyl ether]",Ratio of enhancing the killing effect,housefly adults; [11],9.5
same,LD50,housefly adults; [12],0.060 γ/Fly
"C#CCOCC(CC(C)C)(OCC=C)c1ccccc1 (stereo not drawn) [Present compound (22), Propargyl α-(iso-butyl)-α-allyloxyphenethyl ether]",Ratio of enhancing the killing effect,housefly adults; [11],10.2
same,LD50,housefly adults; [12],0.056 γ/Fly
C#CCCOCC(CCC)(OC)c1ccccc1 (stereo not shown) [Present compound (26)],Ratio of enhancing the killing effect,housefly adults; [11],7.0
same,LD50,housefly adults; [12],0.081 γ/Fly
C#CCCCCOCC(CCC)(OC)c1ccccc1 (stereo not shown) [Present compound (27)],Ratio of enhancing the killing effect,housefly adults; [11],7.0
same,LD50,housefly adults; [12],0.081 γ/Fly
"CC(C)=CC1C(C(=O)OCN2C(=O)C3=C(CCCC3)C2=O)C1(C)C (stereo not shown) [Tetramethrin, N-chrysanthemoxymethyl-3,4,5,6-tetrahydrophthalimide, reference compound]",LD50,housefly adults; [2],0.530 γ/Fly and 0.520 γ/Fly and 0.570 γ/Fly
same,Ratio of enhancing the killing effect,housefly adults; [3],1.0
same,mortality at 0.05 %,house fly adults,52%
